Assay results published in DBAASP.
Values after ≈ are worked out from the molar mass of the structure shown. Values joined by “and” are separate entries in the source; they are usually repeats but may differ in a detail not shown here. Equal entries are not always repeated. Values belong to the molecule of their own block, whether it stands above or below them.

What was measured:
Assay in all cases: ≥ marks a high value that may be exact or a test limit, other limits are often not marked, values filed in µg/mL are converted to µM
[1] = tested on: Streptococcus mutans ATCC 25175
[2] = tested on: Candida albicans ATCC 90028
[3] = tested on: Staphylococcus aureus USA 300
[4] = tested on: Acinetobacter baumannii NM109
[5] = tested on: Acinetobacter baumannii NM35
Escherichia coli K-12 = tested on: Escherichia coli K-12
[6] = tested on: Staphylococcus aureus ATCC 25923
[7] = tested on: Acinetobacter baumannii NM8
[8] = tested on: Candida albicans ATCC 10231
[9] = tested on: Escherichia coli ATCC 25726
[10] = tested on: Acinetobacter baumannii NM124
[11] = tested on: Pseudomonas aeruginosa ATCC 15442
[12] = tested on: Acinetobacter baumannii NM75
Acinetobacter baumannii = tested on: Acinetobacter baumannii
Escherichia coli D31 = tested on: Escherichia coli D31
[13] = tested on: Stenotrophomonas maltophilia B32/4
[14] = tested on: Pseudomonas aeruginosa ATCC 27853
[15] = tested on: Klebsiella pneumoniae ATCC 700603
[16] = tested on: Staphylococcus epidermidis RP62A
[17] = tested on: Staphylococcus epidermidis RP62A/1
[18] = tested on: Staphylococcus aureus CCT 2580
[19] = tested on: Escherichia coli CCT 1457
[20] = tested on: Bacillus cereus ATCC 11778
[21] = tested on: Escherichia coli ATCC 25922
Bacillus megaterium Bm11 = tested on: Bacillus megaterium Bm11
[22] = tested on: Yersinia pseudotuberculosis YPIII
[23] = tested on: Staphylococcus aureus Cowan 1
Staphylococcus capitis 1 = tested on: Staphylococcus capitis 1
Bacillus subtilis = tested on: Bacillus subtilis
Micrococcus luteus = tested on: Micrococcus luteus
Serratia marcescens = tested on: Serratia marcescens
Escherichia coli = tested on: Escherichia coli
Shigella dysenteriae = tested on: Shigella dysenteriae
Pseudomonas aeruginosa = tested on: Pseudomonas aeruginosa
Candida albicans = tested on: Candida albicans
Proteus mirabilis = tested on: Proteus mirabilis
Salmonella typhimurium = tested on: Salmonella typhimurium
Klebsiella pneumoniae = tested on: Klebsiella pneumoniae
[24] = tested on: Staphylococcus aureus NCTC 12493
[25] = tested on: Candida albicans NCYC 1467
[26] = tested on: Escherichia coli NCTC 10418
[27] = tested on: Klebsiella pneumoniae ATCC 43816
[28] = tested on: Enterococcus faecalis NCTC 12697
[29] = tested on: Staphylococcus aureus NCTC 10788

- MIC [1]: ≥ 100 µM
- MIC [2]: 12.5 µM (≈ 29 µg/mL)
- MIC [3]: 25 µM (≈ 58 µg/mL)
- MIC [4]: 6 µM (≈ 13.9 µg/mL)
- MIC [5]: 6 µM (≈ 13.9 µg/mL)
- MIC (Escherichia coli K-12): 25 µM (≈ 58 µg/mL)
- MIC [6]: 25 µM and 22.6 µM
- MIC [7]: 6 µM (≈ 13.9 µg/mL)
- MIC [8]: 16 µM (≈ 37.1 µg/mL)
- MIC [9]: 25 µM (≈ 58 µg/mL)
- MIC [10]: 6 µM (≈ 13.9 µg/mL)
- MIC [11]: ≥ 100 µM
- MIC [12]: 3 µM (≈ 6.96 µg/mL)
- MIC (Acinetobacter baumannii): 12.5 µM (≈ 29 µg/mL)
- MIC (Escherichia coli D31): ≥ 32 µM
Structure (SMILES): CC[C@H](C)[C@H](NC(=O)CN)C(=O)N[C@@H](Cc1c[nH]c2ccccc12)C(=O)N[C@@H](CC(=O)O)C(=O)N[C@H](C(=O)N[C@H](C(=O)N[C@@H](CCCCN)C(=O)N[C@@H](CO)C(=O)N[C@@H](CCSC)C(=O)NCC(=O)N[C@@H](CCCCN)C(=O)N[C@H](C(=O)N[C@@H](Cc1ccccc1)C(=O)N[C@@H](C)C(=O)NCC(=O)N[C@@H](CCCCN)C(=O)N[C@H](C(=O)N[C@@H](CC(C)C)C(=O)N[C@@H](CCC(N)=O)C(=O)N[C@@H](CC(N)=O)C(=O)N[C@@H](CC(C)C)C(N)=O)[C@@H](C)CC)C(C)C)[C@@H](C)CC)[C@@H](C)O [GIWDTIKSMGKVFAGKILQNL]

- MIC [2]: 16 µM (≈ 26.5 µg/mL)
- MIC [13]: ≥ 32 µM
- MIC [14]: 32 µM (≈ 52.9 µg/mL)
- MIC [15]: 32 µM (≈ 52.9 µg/mL)
- MIC [16]: 4 µM (≈ 6.62 µg/mL)
- MIC [6]: 4 µM (≈ 6.62 µg/mL)
- MIC [7]: 8 µM (≈ 13.2 µg/mL)
- MIC [17]: 4 µM (≈ 6.62 µg/mL)
- MIC [9]: ≥ 32 µM
Structure (SMILES): CC[C@H](C)[C@H](N)C(=O)N[C@@H](CC(C)C)C(=O)NCC(=O)N[C@@H](CCCCN)C(=O)N[C@@H](CC(C)C)C(=O)N[C@@H](CC(C)C)C(=O)N[C@@H](CO)C(=O)N[C@H](C(=O)N[C@@H](C)C(=O)N[C@@H](C)C(=O)N[C@@H](CCCCN)C(=O)N[C@@H](CC(C)C)C(=O)N[C@@H](CC(C)C)C(=O)N[C@@H](CO)C(=O)N[C@@H](CC(N)=O)C(=O)N[C@@H](CC(C)C)C(N)=O)[C@@H](C)O [ILGKLLSTAAKLLSNL]

- MIC [18]: 18.7 µM (≈ 31 µg/mL)
- MIC [19]: ≥ 37.3 µM
- MIC [20]: ≥ 37.3 µM
- MIC [11]: ≥ 301 µM
Structure (SMILES): CC[C@H](C)[C@H](N)C(=O)N[C@@H](CC(=O)O)C(=O)N[C@@H](Cc1c[nH]c2ccccc12)C(=O)N[C@@H](CC(C)C)C(=O)N[C@@H](CCCCN)C(=O)N[C@@H](CC(C)C)C(=O)NCC(=O)N[C@@H](CCCCN)C(=O)N[C@@H](CCSC)C(=O)N[C@H](C(=O)N[C@@H](CCSC)C(=O)N[C@@H](CC(=O)O)C(=O)N[C@H](C(=O)N[C@@H](CC(C)C)C(N)=O)C(C)C)C(C)C [IDWLKLGKMVMDVL]

- MIC [21]: > 40 µM
- MIC (Bacillus megaterium Bm11): 2.5 µM (≈ 3.43 µg/mL)
- MIC [22]: 20 µM (≈ 27.4 µg/mL)
- MIC [23]: 2.5 µM (≈ 3.43 µg/mL)
- MIC [8]: 1.25 µM (≈ 1.71 µg/mL)
- MIC (Staphylococcus capitis 1): 2.5 µM (≈ 3.43 µg/mL)
Structure (SMILES): CC[C@H](C)[C@H](NC(=O)CNC(=O)[C@H](CO)NC(=O)[C@H](CC(C)C)NC(=O)[C@@H](NC(=O)[C@H](CCCN=C(N)N)NC(=O)CNC(=O)[C@@H](NC(=O)[C@H](CC(C)C)NC(=O)[C@H](C)NC(=O)[C@H](CC(C)C)NC(=O)[C@@H](N)Cc1ccccc1)[C@@H](C)CC)C(C)C)C(=O)N[C@@H](CC(C)C)C(N)=O [FLALIGRVLSGIL]

- MIC (Bacillus subtilis): ≥ 76.3 µM
- MIC (Micrococcus luteus): 9.54 µM (≈ 25 µg/mL)
- MIC (Serratia marcescens): ≥ 76.3 µM
- MIC (Escherichia coli): > 76.3 µM
- MIC (Shigella dysenteriae): ≥ 76.3 µM
- MIC (Pseudomonas aeruginosa): > 76.3 µM
- MIC (Candida albicans): 76.3 µM (≈ 200 µg/mL)
- MIC (Proteus mirabilis): ≥ 76.3 µM
- MIC (Salmonella typhimurium): ≥ 76.3 µM
- MIC (Klebsiella pneumoniae): > 76.3 µM
Structure (SMILES): CC[C@H](C)[C@H](NC(=O)[C@@H](N)C(C)C)C(=O)N1CCC[C@H]1C(=O)N[C@@H](Cc1ccccc1)C(=O)N[C@H](C(=O)N[C@@H](C)C(=O)N[C@@H](CO)C(=O)N[C@H](C(=O)N[C@@H](C)C(=O)N[C@@H](C)C(=O)N[C@@H](CCC(=O)O)C(=O)N[C@@H](CCSC)C(=O)N[C@@H](CCSC)C(=O)N[C@@H](Cc1cnc[nH]1)C(=O)N[C@@H](Cc1cnc[nH]1)C(=O)N[C@H](C(=O)N[C@@H](Cc1ccc(O)cc1)C(=O)N[C@H]1CSSC[C@@H](C(=O)O)NC(=O)[C@H](CCCN=C(N)N)NC(=O)[C@H](CCCCN)NC(=O)[C@H](CO)NC(=O)[C@H](C)NC(=O)[C@H](C)NC1=O)C(C)C)C(C)C)C(C)C [VIPFVASVAAEMMHHVYCAASKRC]

- MIC [14]: > 512 µM
- MIC [24]: 16 µM (≈ 32.2 µg/mL)
- MIC [25]: 8 µM (≈ 16.1 µg/mL)
- MIC [26]: ≥ 64 µM
- MIC [27]: ≥ 256 µM
- MIC [28]: ≥ 64 µM
- MIC [29]: 4 µM (≈ 8.05 µg/mL)
Structure (SMILES): CC[C@H](C)[C@H](NC(=O)[C@H](C)NC(=O)[C@H](CO)NC(=O)[C@@H](NC(=O)[C@H](C)NC(=O)[C@H](CCCCN)NC(=O)[C@@H]1CCCN1C(=O)[C@@H](NC(=O)[C@H](CC(C)C)NC(=O)[C@H](CO)NC(=O)[C@H](CC(C)C)NC(=O)[C@@H](N)Cc1ccccc1)[C@@H](C)CC)[C@@H](C)CC)C(=O)N[C@@H](CO)C(=O)N[C@@H](C)C(=O)N[C@@H](CC(C)C)C(=O)N[C@@H](C)C(=O)N[C@@H](CC(N)=O)C(=O)N[C@@H](Cc1cnc[nH]1)C(=O)N[C@@H](Cc1ccccc1)C(N)=O [FLSLIPKAISAISALANHF]
